Results reported in paper PMC8587750, “Structural Optimization and Biological Activity of Pyrazole Derivatives: Virtual Computational Analysis, Recovery Assay and 3D Culture Model as Potential Predictive Tools of Effectiveness against Trypanosoma cruzi” (Molecules, 2021).
Where two headings read alike, the source gives them in different places.

How the values were obtained:
[1] = test system: intracellular parasites in T. cruzi-infected microtissue; test: 3D-microtissue-based phenotypic screening (T. cruzi-infected Vero spheroids); assay type: cell-based, Trypanosoma cruzi; conditions: 72 h treatment; Bz 100 µM
Experimental: Vero cells were seeded at a density of 2 × 10^5 cells/well in a 96-well U-bottom plate previously coated with agarose (1%). The 3D cultures, adapted from, were cultivated for 4 days in RPMI 1640 medium supplemented with 10% FBS and L-glutamine for complete 3D microtissue formation. The 3D culture model was used as a tool to evaluate the effectiveness of promising derivatives in eliminating intracellular parasites in the microtissue.
The 3D-microtissue-based phenotypic screening was performed with the promising pyrazole derivatives. […] At the end of the treatment, the 3D cultures supernatants were removed, and luciferin (300 μg/mL) was added to the spheroids. The luminescent signal was read on the Glomax-Multi Detection reader (Promega Corporation, Madison, WI, USA). Bz (100 µM) and DMSO (≤1%) were used as positive and negative control, respectively. The IC50 value was calculated by linear regression. At least three independent assays were performed in quadruplicate.

[2] = test system: trypomastigote forms of T. cruzi; test: Phenotypic screening against T. cruzi trypomastigotes (Dm28c-Luc, luciferase viability, 24 h); assay type: cell-based, Trypanosoma cruzi; conditions: for IC50 / IC90: Trypanosoma cruzi, Dm28c-Luc, 24 h; for IC50: read-out: Trypanocidal Activity Trypomastigotes IC50; for IC90: read-out: Trypanocidal Activity Trypomastigotes IC90
Description: (§1) T. cruzi Dm28c clone genetically modified to express luciferase, kindly provided by Dr. Cristina Henriques from Oswaldo Cruz Institute–Fiocruz, was used in the drug assays. Trypomastigotes were harvested from T. cruzi-infected Vero cultures supernatants at 4th days post-infection (dpi) and used in the phenotypic screening assay. For intracellular amastigotes assays, Vero cells (2D and 3D cultures) were infected at a ratio of 10:1 parasites/host cells.
The phenotypic compound screening was performed using transgenic T. cruzi parasites expressing the firefly luciferase (Dm28c-Luc). Trypomastigotes (1 × 10^6 parasites/well) were treated for 24 h at 37 °C with the pyrazole derivatives and Bz (0.04–100 μM), followed by incubation with luciferin substrate (300 µg/mL) to determine parasite viability through luciferase activity. The concentration that reduces the number of viable parasites by 50% (IC50) or 90% (IC90) was calculated by linear regression. The luminescent signal was read on a Glomax-Multi Detection plate reader (Promega Corporation, Madison, WI, EUA)). At least three independent assays were performed in duplicate.

[3] = test system: T. cruzi (Dm28c-Luc) in Vero cells; test: Reversibility (washout) assay, parasite recrudescence in infected Vero cells; assay type: cell-based, Trypanosoma cruzi; conditions: 100 µM, 72 h after washout
Experimental: To address the question of whether the treatment with 3g, 3j, and 3m leads to parasite clearance, an intracellular T. cruzi washout assay was performed as a strategy for monitoring the parasite recrudescence. In this approach, cultures of infected Vero cells (Dm28c-Luc) were treated for 72 h at IC90 and 50 µM (2 to 5-fold de IC90) concentrations of the promising compounds 3g, 3j, and 3m and, after washing the cell monolayers, the cultures were kept for another 72 h without drug treatment. Both cell monolayers and their supernatants were evaluated for the presence of viable parasites after luciferin addition. All derivatives analyzed relapsed at the IC90 concentration (Figure 3). However, treatment with 3g, 3j, and 3m led to a significant reduction in the parasite load, reaching a decrease of 4.5-, 1.9-, and 8.7-fold, respectively, when compared to untreated infected Vero cells cultures (Figure 3). The emergence of trypomastigotes in the supernatant, at IC90 concentration, was observed three days after removal of drug pressure, but with a significant reduction in viable parasites compared to untreated cultures (Figure 3). Parasite recrudescence was not seen in 100 µM Bz treatment (Figure 3).
The washout assay, adapted from, was performed to evaluate the promising compounds efficacy. […] After successive washing, the cultures were maintained for an additional 72 h at 37 °C in RPMI 1640 medium supplemented with 10% SFB in the absence of the compound. Luciferin (300 µg/mL) was added separately to the culture supernatant, previously removed, and the cell monolayer. The luminescent signal was read on the Glomax-Multi Detection reader (Promega Corporation, Madison, WI, USA). Bz (100 µM) and DMSO (≤1%) were used as positive and negative reaction controls, respectively.

[4] = Cytotoxicity in vitro assay (ATP, CellTiter Glo, 72 h); assay type: cell-based; conditions: African green monkey, Vero cells
Experimental: Vero cells, obtained from the Rio de Janeiro Cell Bank (BCRJ code 0245), were cultured in RPMI-1640 supplemented with 10% fetal bovine serum (FBS) and 1 mM L-glutamine, as previously described. Vero cells were used for drug screening assays and to obtain trypomastigote forms of T. cruzi.
Vero cells were used as a cellular model to analyze the toxic effect of pyrazole derivatives, series 1(a–l), 2(a–l), 3(a–n), 4(a–c), and 5(a–c), and Benznidazole (Bz) on mammalian cells. Briefly, the cells, plated on 96-well white opaque microplate (1.5 × 10^4 cells/well), were treated for 72 h at 37 °C with a wide range concentration (500–1.95 µM) of the pyrazole derivatives. The cell viability was determined by measuring ATP levels using the CellTiter Glo Kit (Promega Corporation, Madison, WI, EUA) followed by reading the luminescent signal on the Glomax-Multi Detection plate reader (Promega Corporation, Madison, WI, EUA)). All treatments and controls were performed at a low concentration of DMSO (≤1%). The 50% cytotoxic concentration values (CC50; the concentration of the compound that reduces 50% of the cell viability) were estimated by linear regression analysis. Three independent assays were performed in duplicate.

[5] = test system: intracellular amastigotes of T. cruzi; test: Activity against intracellular amastigotes in infected Vero cells (Dm28c-Luc, 72 h); assay type: cell-based, Trypanosoma cruzi; conditions: for Intracellular Amastigotes SI: CC50 of Vero cells/IC50 of intracellular amastigote; for IC50 / IC90: Trypanosoma cruzi; for IC90: read-out: Trypanocidal Activity Intracellular Amastigotes IC90
Description: as §1
The effect of the pyrazole derivatives against intracellular amastigotes was also evaluated after 72 h treatment (37 °C) with compound concentrations ranging from 0.04–100 µM [13]. Parasite viability, measured by luminescent signal, was determined after luciferin (300 µg/mL) addition. IC50 and IC90 values were calculated by linear regression. Selectivity index (SI) was calculated as the ratio of the CC50 to IC50 values. The non-toxic concentration of DMSO (less than 1% v/v) was used in all assays. A minimum of three independent assays was carried out in duplicate.

[6] = test system: T. cruzi cysteine protease; test: Cysteine protease activity of trypomastigote total protein extracts (Z-FR-AMC); assay type: biochemical, Trypanosoma cruzi; conditions: concentrations ≥ 11.11 µM
Experimental: Total protein extract from trypomastigotes (Dm28c-Luc; 10^8 parasites/mL) were extracted with lysis buffer. Cysteine protease activity of extracts (5 μg) was measured in acetate buffer using fluorogenic peptide substrate (60 μM of 7-Amino-4-Methylcoumarin hydrochloride, CBZ-L-Phenylalanyl-L-Arginine amide (Z-FR-AMC). Total protein extracts were incubated for 45 min at room temperature with the compounds and changes in relative fluorescence units monitored using a SpectraMaxM2e spectrophotometer (Molecular Devices, Sunnyvale, CA, USA) for 1 h with excitation at 370 nm and emission at 460 nm. The inhibition assays were performed by coincubation with different compounds (3g, 3j, and 3m) and concentrations (300–11.11 µM) and transepoxysuccinyl-L-leucylamido-(4-guanidino) butane (E-64). Additional control was carried out with DMSO (≤1%). Enzymatic activity was expressed in µmol/min/mg of protein and the residual activity in percentage.
Figure 6 Inhibition of T. cruzi cysteine protease activity. Total protein extracts of trypomastigotes (5 µg), was incubated at different concentrations (300–11.11 µM) of compounds E64 (black circle), 3g (black triangle), 3j (black square) and 3m (white circle) in enzyme activation buffer pH 5.0, at 37 °C. Enzyme activity was measured using a specific fluorogenic peptide substrate Z-FR-AMC (60 µM). Results are presented as percentage of inhibition of enzyme activity (%) and represent the mean and standard deviation (±) of three independent experiments.

[7] = Vero, negative log of the IC50 value in molar, read-out: Intracellular Amastigotes pIC50 (converted)
[8] = Vero cells infected with Dm28c-Luc, 72 h
[9] = Vero, 72 h, Vero cells infected with Dm28c-Luc, 72 h, read-out: Trypanocidal Activity Intracellular Amastigotes IC50

## O=C(Cn1ccnc1[N+](=O)[O-])NCc1ccccc1 [Bz, benznidazole, reference compound]
[1]
  viability of intracellular parasites in microtissue, luminescence intensity (ALU): 18,858 ± 3726 ALU
[2]; CC50 of Vero cells/IC50 of trypomastigote
  Trypomastigotes SI: >26.7
[2]
  IC50: 18.7 ± 4.58 µM
  IC90: > 100 µM
[3]
  parasite recrudescence: not seen
[4]
  CC50 at 72 h: > 500 µM
[5]
  Intracellular Amastigotes SI: >107
[5]; [7]
  IC50: 4.68 µM
[5]; Vero cells infected with Dm28c-Luc, 72 h, read-out: Trypanocidal Activity Intracellular Amastigotes IC50
  IC50: 4.67 ± 0.22 µM
[5]; [8]
  IC90: > 100 µM

## Brc1cccc(-n2cc(C3=NCCN3)cn2)c1 [Compound 3k, 1-(3-bromophenyl)-4-(4,5-dihydro-1H-imidazol-2-yl)-1H-pyrazole]
other
  melting point: 116 to 120 °C
[2]
  IC50: > 100 µM
[4]
  CC50 at 72 h: 211 ± 31.7 µM
[5]; 3b compared to 3g, 3k compared to 3j
  fold drop in activity on moving Cl or Br to the meta position: 10 fold
[5]
  Intracellular Amastigotes SI: 7.84
[5]; [9]
  IC50: 26.9 ± 2.19 µM
[5]; [7]
  IC50: 26.9 µM
[5]; [8]
  IC90: 72.9 ± 3.67 µM

## COc1ccc(-n2cc(C3=NCCN3)cn2)cc1 [Compound 3l, 4-(4,5-dihydro-1H-imidazol-2-yl)-1-(4-methoxyphenyl)-1H-pyrazole]
other
  melting point: 196 to 197 °C
[2]
  IC50: > 100 µM
[4]
  CC50 at 72 h: > 500 µM
[5]
  Intracellular Amastigotes SI: >7
[5]; [9]
  IC50: 71.8 ± 2.71 µM
[5]; [7]
  IC50: 72.4 µM
[5]; [8]
  IC90: > 100 µM

## Cc1cc(Cl)ccc1-n1cc(C2=NCCN2)cn1 [Compound 3n, 1-(4-chloro-2-methylphenyl)-4-(4,5-dihydro-1H-imidazol-2-yl)-1H-pyrazole]
other
  melting point: 174 to 176 °C
[2]
  IC50: > 100 µM
[4]
  CC50 at 72 h: 342 ± 30 µM
[5]
  Intracellular Amastigotes SI: 13.86
[5]; [9]
  IC50: 24.7 ± 3.42 µM
[5]; [7]
  IC50: 24.5 µM
[5]; [8]
  IC90: 85.7 ± 5.03 µM

## Cc1nn(-c2cccc(Cl)c2)c(N)c1C1=NCCN1 [Compound 4a, 5-amino-1-(3-chlorophenyl)-3-methyl-4-(4,5-dihydro-1H-imidazol-2-yl)-1H-pyrazole]
other
  melting point: 116 to 120 °C
[2]
  IC50: > 100 µM
  IC90: > 100 µM
[4]
  CC50 at 72 h: > 500 µM
[5]; [9]
  IC50: > 100 µM
[5]; [7]
  IC50: > 100 µM
[5]; [8]
  IC90: > 100 µM

## Cc1nn(-c2cc(Cl)cc(Cl)c2)c(N)c1C1=NCCN1 [Compound 4b, 5-amino-1-(3,5-dichlorophenyl)-3-methyl-4-(4,5-dihydro-1H-imidazol-2-yl)-1H-pyrazole]
other
  melting point: 193 to 194 °C
[2]
  IC50: > 100 µM
  IC90: > 100 µM
[4]
  CC50 at 72 h: > 500 µM
[5]
  Intracellular Amastigotes SI: >5.51
[5]; [9]
  IC50: 90.7 ± 13.2 µM
[5]; [7]
  IC50: 91.2 µM
[5]; [8]
  IC90: > 100 µM

## Cc1nn(-c2ccc(Cl)c(Cl)c2)c(N)c1C1=NCCN1 [Compound 4c, 5-amino-1-(3,4-dichlorophenyl)-3-methyl-4-(4,5-dihydro-1H-imidazol-2-yl)-1H-pyrazole]
other
  melting point: 221 to 224 °C
[2]
  IC50: > 100 µM
  IC90: > 100 µM
[4]
  CC50 at 72 h: 355 ± 17.7 µM
[5]
  Intracellular Amastigotes SI: 3.78
[5]; [9]
  IC50: 93.8 ± 16.4 µM
[5]; [7]
  IC50: 93.3 µM
[5]; [8]
  IC90: > 100 µM

## CC1CN=C(c2cnn(-c3cccc(Cl)c3)c2N)N1 (stereo not drawn) [Compound 5a, 5-amino-1-(3-chlorophenyl)-4-(4-(5)-methyl-4,5-dihydro-1H-imidazol-2-yl)-1H-pyrazole]
other
  melting point: 169 to 172 °C
[2]
  IC50: > 100 µM
  IC90: > 100 µM
[4]
  CC50 at 72 h: > 500 µM
[5]; [9]
  IC50: > 100 µM
[5]; [7]
  IC50: > 100 µM
[5]; [8]
  IC90: > 100 µM

## CC1CN=C(c2cnn(-c3cc(Cl)cc(Cl)c3)c2N)N1 (stereo not drawn) [Compound 5b, 5-amino-1-(3,5-dichlorophenyl)-4-(4-(5)-methyl-4,5-dihydro-1H-imidazol-2-yl)-1H-pyrazole]
other
  melting point: 189 to 192 °C
[2]
  IC50: > 100 µM
  IC90: > 100 µM
[4]
  CC50 at 72 h: > 500 µM
[5]
  Intracellular Amastigotes SI: >15.17
[5]; [9]
  IC50: 33 ± 8.84 µM
[5]; [7]
  IC50: 33.1 µM
[5]; [8]
  IC90: > 100 µM

## CC1CN=C(c2cnn(-c3ccc(Cl)c(Cl)c3)c2N)N1 (stereo not drawn) [Compound 5c, 5-amino-1-(3,4-dichlorophenyl)-4-(-4(5)-methyl-4,5-dihydro-1H-imidazol-2-yl)-1H-pyrazole]
other
  melting point: 191 to 193 °C
[2]
  IC50: > 100 µM
  IC90: > 100 µM
[4]
  CC50 at 72 h: 343 ± 37 µM
[5]; [9]
  IC50: 34.3 ± 4.24 µM
[5]; [7]
  IC50: 34.7 µM
[5]; [8]
  IC90: > 100 µM

## CC(C)C[C@H](NC(=O)[C@H]1O[C@@H]1C(=O)O)C(=O)NCCCCN=C(N)N [Compound E-64, transepoxysuccinyl-L-leucylamido-(4-guanidino) butane, reference compound]
[6]
  inhibition of cysteine protease enzymatic activity: greater than 80%
